{
  "source": "patent US8623844B2",
  "about": "“Fosaprepitant dimeglumine intermediate, neutral fosaprepitant, and amorphous fosaprepitant dimeglumine and processes for their preparations” (priority 2008, dated 2014)",
  "key": {"[1]": {"settings": "cited from earlier work"}, "[2]": {"test": "Stability studies of amorphous form, series of XRPD spectra (FIG. 7)", "type": "physicochemical", "settings": "about 2° C. to about 8° C., relative humidity less than about 60%, about 7 days to about 2 months", "protocol": "The diffractogram was obtained using a Powder X-ray Diffractometer (Philips X'Pert Pro, PANalytical®) with a Cu radiation of λ=1.540598Å. The measurements were carried out from 2 degrees to 50 degrees with times per step of 50 seconds.\nThe stability data, shown as series of XRPD scans, are substantially in accordance with FIG. 7."}},
  "data": [
    {"smiles": "CNC[C@H](O)[C@@H](O)[C@H](O)[C@H](O)CO.CNC[C@H](O)[C@@H](O)[C@H](O)[C@H](O)CO.C[C@@H](O[C@H]1OCCN(Cc2nn(P(=O)(O)O)c(=O)[nH]2)[C@H]1c1ccc(F)cc1)c1cc(C(F)(F)F)cc(C(F)(F)F)c1", "values": [
      {"measurement": "degradation on storage", "setting": "[1]; normal ambient temperatures, stored at −20° C. to avoid degradation, J. Med. Chem. 2000, 43, 1234-1241", "result": "degrades at normal ambient temperatures"},
      {"measurement": "stability of amorphous form on exposure", "setting": "[1]; normal room temperature, as well as about 2° C.-8° C., transforms into crystalline form", "result": "loses its stability"}
    ]},
    {"smiles": "CNC[C@H](O)[C@@H](O)[C@H](O)[C@H](O)CO.CNC[C@H](O)[C@@H](O)[C@H](O)[C@H](O)CO.C[C@@H](O[C@H]1OCCN(Cc2nc(=O)n(P(=O)(O)O)[nH]2)[C@H]1c1ccc(F)cc1)c1cc(C(F)(F)F)cc(C(F)(F)F)c1", "note": "[amorphous fosaprepitant dimeglumine, 1-deoxy-1-(methylamino)-D-glucitol[3-[[(2R,3S)-2-[(1R)-1-[3,5-bis(trifluoromethyl)phenyl]-ethoxy]-3-(4-fluorophenyl)-4-morpholinyl]methyl]-2,5-dihydro-5-oxo-1H-1,2,4-triazol-1-yl]phosphonate (2:1) (salt)]", "values": [
      {"measurement": "stability of amorphous polymorphic form (XRPD)", "setting": "[2]", "result": "substantially stable"}
    ]}
  ]
}
